Key:
[1] = other S1P receptor modulators, given for comparison; cited from earlier work
[2] = test system: adult subjects with relapsing MS; experiment: Phase III study: premature treatment discontinuation and deaths; type: in vivo
Description: A total of 1468 subjects were screened. Of those, 1133 subjects were randomized (567 to ponesimod 20 mg and 566 to teriflunomide 14 mg) across 162 sites in 28 countries, and 1131 subjects received at least one dose of study drug. The disposition of subjects is summarized in Table 1 and a summary of reasons (primary reason) for treatment discontinuation are shown in Table 2. Overall treatment and study discontinuation were balanced across both treatment arms. A total of 6.5% and 2.5% of the subjects discontinued due to AEs or tolerability related reasons in ponesimod 20 mg and teriflunomide 14 mg, respectively, while 1.9% and 4.3% discontinued due to efficacy related reasons. There were 2 deaths reported during the study—both on teriflunomide 14 mg.

[3] = test system: adult subjects with relapsing MS; experiment: MRI-based scaled brain ventricular volume (lateral + 3rd ventricle / ICV); type: in vivo, human
Source text: Efficacy variable/timepoint: The endpoint was increase in ventricular volume up to the end of study (EOS). All available data up to EOS, regardless of treatment discontinuation was included (ITT approach).
Ventricular Volume (VV) data were obtained from MRI images from patients that participated in the OPTIMUM study. Data were obtained from those patients who had MRI imagines at baseline week 60 and week 108. One pre-requisite was to select only those patients who had all images completed.
Ventricular volume was estimated from MRI images collected at baseline (BL), week 60 and week 108 for 428 subjects treated with ponesimod and 427 with teriflunomide. Lesions were identified using T2-weighted and Proton Density (PD) MRIs. Ventricles were segmented using lesion-filled T1 images using with the longitudinal stream in FreeSurfer 7. For each subject, scaled ventricular volume (V) was computed as the sum of lateral and 3rd ventricle volumes divided by the intracranial volume (ICV) and expressed as a percentage. Average V (V) and average change in V (ΔV) from baseline at weeks 60 and 108 were compared across treatment arms. Ventricular volumes were correlated with Multiple Sclerosis Functional Composite (MSFC), Paced Auditory Serial Addition Test (PASAT), Average Timed 25 Foot Walk (T25FW), Average 9-Hole Peg Test (9-HPT), Single Digit Modality Test (SDMT), FSIQ-RMS and Expanded Disability Score (EDSS).

[4] = test system: adult subjects with relapsing MS; experiment: 12-lead ECG heart rate and first-dose monitoring on Day 1; type: in vivo, human
Description: The incidence of treatment-emergent heart rate and rhythm (including hypotension) AESIs on Day 1 was higher in the ponesimod 20 mg arm (2.1%) than in the teriflunomide 14 mg arm (0.4%). However, the overall incidence of first dose AESI on Day 1 was low (2.1%) in ponesimod. None of these events were serious nor led to permanent discontinuation of study treatment. Discharge criteria at 4 hours post-dose were met for ca. 99% of subjects. […] ECG HR effect: nadir at 2 hours post-dose (siponimod—3-4 hours, fingolimod—around by 6 hours). Low incidence of low HR outliers (post-dose HR≤40 bpm), all 3 of them with a pre-treatment HR of <55 bpm, which is a known risk factor for post-dose bradycardia with SIP receptor modulators.
The mean heart rate reduction compared to pre-dose reached a maximum for ponesimod 20 mg at 2-hours post dose, −8.7 bpm compared to −1.7 bpm for teriflunomide 14 mg (FIG. 2).

[5] = test system: adult subjects with relapsing MS; experiment: Phase III study ponesimod 20 mg vs teriflunomide 14 mg: treatment-emergent adverse events (Safety Set)
Description: A prospective, multicenter, randomized, double-blind, active controlled, parallel-group, phase III, superiority study was conducted.
The treatment period consisted of an up-titration period (from Day 1 to 14) and a maintenance period (Day 15 until EOT).
To reduce the first-dose effect of ponesimod, an up-titration scheme was implemented from Day 1 to Day 14: • Days 1 and 2; 2 mg. • Days 3 and 4; 3 mg. • Days 5 and 6; 4 mg. • Day 7; 5 mg. • Day 8; 6 mg. • Day 9; 7 mg. • Day 10; 8 mg. • Day 11; 9 mg. • Days 12, 13, and 14; 10 mg. • Day 15 until EOT; 20 mg.
The Safety Set (SAF) included all randomized subjects who received at least one dose of study treatment. Subjects were analyzed based on actual treatment taken, not randomized treatment.

[6] = ponesimod 20 mg N=565, teriflunomide 14 mg N=566, Safety Set
[7] = ponesimod 20 mg, teriflunomide 14 mg
[8] = week 60 and week 108 vs baseline, ponesimod n=428, teriflunomide n=427
[9] = Day 1, ponesimod N=565, teriflunomide N=566, Safety Set
[10] = treatment-emergent, ponesimod 20 mg N=565, teriflunomide 14 mg N=566, Safety Set

For `CCc1cc(/C(C)=N/OCc2ccc(C3CCCCC3)c(C(F)(F)F)c2)ccc1CN1CC(C(=O)O)C1` [siponimod], the “ECG HR effect: time of nadir post-dose” value [1] is given as 3 to 4 h.

With `CCC/N=C1\S/C(=C\c2ccc(OC[C@H](O)CO)c(Cl)c2)C(=O)N1c1ccccc1C` [ponesimod, (R)-5-[3-chloro-4-(2,3-dihydroxy-propoxy)-benz[Z]ylidene]-2-([Z]-propylimino)-3-o-tolyl-thiazolidin-4-one] the “Premature discontinuation: Death” value [2, 6] was 0 n, the “Subjects discontinued due to AEs or tolerability related reasons” value [2, 7] was 6.5% and the “Rate of increase in ventricular volume lower compared to teriflunomide” value ([3]; week 60) was 60%. For the same molecule, the “Difference in ventricular volume increase, ponesimod minus teriflunomide (Δ60V^pon−Δ60V^ter)” value ([3]; week 60, p<0.001) was −0.025%, the “Average change in scaled ventricular volume from baseline (Δ60V), percentage of ICV” value ([3]; week 60, p<0.001 vs baseline, ponesimod n=428, teriflunomide n=427) was 0.026% and the “Reduction of atrophy compared to teriflunomide (FIGS. 4-6; 3rd and lateral ventricle)” value [3, 8] was “greater”. The “Ventricular enlargement compared to teriflunomide (FIG. 3)” value [3, 8] was “less”, the “Rate of increase in ventricular volume lower compared to teriflunomide” value ([3]; week 108) was 45% and the “Difference in ventricular volume increase, ponesimod minus teriflunomide (Δ108V^pon−Δ108V^ter)” value ([3]; week 108, p<0.001) was 0.043%. For the same molecule, the “Average change in scaled ventricular volume from baseline (Δ108V), percentage of ICV” value ([3]; week 108, p<0.001 vs baseline, ponesimod n=428, teriflunomide n=427) was 0.067%, the “Mean heart rate reduction compared to pre-dose (maximum)” value ([4]; Day 1, 2 hours post dose, 12-lead ECG) was −8.7 bpm and the “2nd or higher degree AV block” value ([4]; Day 1, first dose) was “No 2nd or higher degree AV block was observed”. For the same molecule, the “ECG HR effect: time of nadir / maximum mean heart rate reduction post-dose” value ([4]; Day 1, first dose) was 2 h, the “Subjects meeting discharge criteria at 4 hours post-dose” value ([4]; Day 1, first dose) was “ca. 99%” and the “Subjects with asymptomatic post-dose HR≤40 bpm” value ([4]; Day 1, all had pre-treatment HR <55 bpm) was 3 subjects. The “Incidence of treatment-emergent heart rate and rhythm (including hypotension) AESIs on Day 1” value ([5]; Day 1, ponesimod 20 mg arm, teriflunomide 14 mg arm) was 2.1%, the “AESI effect on heart rate and rhythm (including hypotension) on Day 1: Subjects with at least one AE” value [5, 9] was 12(2.1) n (%) and the “AESI heart rate and rhythm on Day 1, PT: Atrioventricular block first degree” value [5, 9] was 3(0.5) n (%). For the same molecule, the “AESI heart rate and rhythm on Day 1, PT: Bradycardia” value [5, 9] was 4(0.7) n (%), the “AESI heart rate and rhythm on Day 1, PT: Bundle branch block left” value [5, 9] was 1(0.2) n (%) and the “AESI heart rate and rhythm on Day 1, PT: Bundle branch block right” value [5, 9] was 1(0.2) n (%). For the same molecule, the “AESI heart rate and rhythm on Day 1, PT: Defect conduction intraventricular” value [5, 9] was 2(0.4) n (%), the “AESI heart rate and rhythm on Day 1, PT: Electrocardiogram QT prolonged” value [5, 9] was 0 n (%) and the “AESI heart rate and rhythm on Day 1, PT: Presyncope” value [5, 9] was 0 n (%). For the same molecule, the “AESI heart rate and rhythm on Day 1, PT: Sinus arrhythmia” value [5, 9] was 1(0.2) n (%), the “AESI heart rate and rhythm on Day 1, PT: Sinus bradycardia” value [5, 9] was 1(0.2) n (%) and the “Treatment-emergent AESI: Infection” value ([5]; only if serious or severe, ponesimod 20 mg N=565, teriflunomide 14 mg N=566, Safety Set) was 9(1.6) n (%). For the same molecule, the “TEAEs leading to premature discontinuation of study drug: Subjects with at least one AE” value [5, 6] was 49(8.7) n (%), the “TEAEs leading to premature discontinuation, SOC: Blood and lymphatic system disorders” value [5, 6] was 3(0.5) n (%) and the “TEAEs leading to premature discontinuation, SOC: Cardiac disorders” value [5, 6] was 1(0.2) n (%). For the same molecule, the “TEAEs leading to premature discontinuation, SOC: Eye disorders” value [5, 6] was 5(0.9) n (%), the “TEAEs leading to premature discontinuation, SOC: Gastrointestinal disorders” value [5, 6] was 4(0.7) n (%) and the “TEAEs leading to premature discontinuation, SOC: General disorders and administration site conditions” value [5, 6] was 3(0.5) n (%). The “TEAEs leading to premature discontinuation, SOC: Hepatobiliary disorders” value [5, 6] was 3(0.5) n (%), the “TEAEs leading to premature discontinuation, SOC: Investigations” value [5, 6] was 12(2.1) n (%) and the “TEAEs leading to premature discontinuation, SOC: Musculoskeletal and connective tissue disorders” value [5, 6] was 1(0.2) n (%). The “TEAEs leading to premature discontinuation, SOC: Neoplasms benign, malignant and unspecified (incl cysts and polyps)” value [5, 6] was 1(0.2) n (%), the “TEAEs leading to premature discontinuation, SOC: Nervous system disorders” value [5, 6] was 2(0.4) n (%) and the “TEAEs leading to premature discontinuation, SOC: Pregnancy, puerperium and perinatal conditions” value [5, 6] was 3(0.5) n (%). The “TEAEs leading to premature discontinuation, SOC: Psychiatric disorders” value [5, 6] was 1(0.2) n (%), the “TEAEs leading to premature discontinuation, SOC: Reproductive system and breast disorders” value [5, 6] was 0 n (%) and the “TEAEs leading to premature discontinuation, SOC: Respiratory, thoracic and mediastinal disorders” value [5, 6] was 7(1.2) n (%). For the same molecule, the “TEAEs leading to premature discontinuation, SOC: Skin and subcutaneous tissue disorders” value [5, 6] was 1(0.2) n (%), the “TEAEs leading to premature discontinuation, SOC: Social circumstances” value [5, 6] was 2(0.4) n (%) and the “TEAEs leading to premature discontinuation, SOC: Surgical and medical procedures” value [5, 6] was 0 n (%). For the same molecule, the “TEAEs leading to premature discontinuation, SOC: Vascular disorders” value [5, 6] was 3(0.5) n (%), the “Treatment-emergent AESI: Effect on heart rate and rhythm (including hypotension)” value [5, 6] was 29(5.1) n (%) and the “Treatment-emergent AESI: Hepatobiliary disorders/Liver enzyme abnormality” value [5, 6] was 145(25.7) n (%). For the same molecule, the “Treatment-emergent AESI: Herpetic infection” value [5, 6] was 27(4.8) n (%), the “Treatment-emergent AESI: Hypertension” value [5, 6] was 57(10.1) n (%) and the “Treatment-emergent AESI: Macular edema” value [5, 6] was 6(1.1) n (%). For the same molecule, the “Treatment-emergent AESI: Non-skin malignancy” value [5, 6] was 1(0.2) n (%), the “Treatment-emergent AESI: Pulmonary events” value [5, 6] was 45(8.0) n (%) and the “Treatment-emergent AESI: Seizure” value [5, 6] was 8(1.4) n (%). The “Treatment-emergent AESI: Skin malignancy” value [5, 6] was 5(0.9) n (%), the “AESI category hepatobiliary disorders/liver enzyme abnormality” value [5, 7] was 25.7% and the AESI category hypertension [5, 7] was 10.1%. The “AESI category pulmonary events” value [5, 7] was 8.0%, the “Proportion of subjects who experienced at least one SAE” value [5, 7] was 8.7% and the “Proportion of subjects who experienced at least one TEAE” value [5, 7] was 88.8%. For the same molecule, the “TEAE: ALT increased” value [5, 7] was 19.5%, the “TEAE: headache” value [5, 7] was 11.5% and the “TEAE: nasopharyngitis” value [5, 7] was 19.3%. For the same molecule, the “TEAE: upper respiratory tract infection” value [5, 7] was 10.6%, the “TEAEs leading to premature treatment discontinuation” value [5, 7] was 8.7% and the “Subjects with at least one AE” value [5, 10] was 502(88.8) n (%). For the same molecule, the “Subjects with at least one AE leading to study drug discontinuation” value [5, 10] was 49(8.7) n (%), the “Subjects with at least one Drug-Related AE” value [5, 10] was 278(49.2) n (%) and the “Subjects with at least one Fatal AE” value [5, 10] was 0 n (%). For the same molecule, the “Subjects with at least one Serious AE” value [5, 10] was 49(8.7) n (%) and the “Subjects with at least one Severe AE” value [5, 10] was 39(6.9) n (%).

In the case of `CCCCCCCCc1ccc(CCC(N)(CO)CO)cc1` [fingolimod], the “ECG HR effect: time of nadir post-dose” value [1] is listed as ~6 h.

Source: patent US20240261268A1, “METHODS OF SLOWING AN INCREASE IN BRAIN VENTRICULAR VOLUME” (VANDA PHARMACEUTICALS INC., priority 2022, published 2024)
